In brackets after ≈: the same amount, converted by molar mass.
Key:
Format in all cases: cell-based
[1] = tested on: Escherichia coli NIHJ; assay: MIC, plate method, standard strains; settings: unit assumed; for MIC Esche--richin coil NIHJ: Table 3, standard strain; for MIC Escherichia coli NIHJ: Table 4, standard strain
Description: (§1) The minimum inhibitory concentration (MIC) was determined by the plate method disclosed in "Chemotherapy" (Japan), Vol. 16, (1968), pages 98-99. The culture medium used was a Heart infusion agar (pH 7.4). The number of the cells per plate used in the inoculum was 10^4 (10^6 cells/ml).

[2] = tested on: Klebsiella pneumoniae; assay: MIC, plate method, standard strains; settings: unit assumed
Description: as §1

[3] = tested on: Proteus vulgaris 3027; assay: MIC, plate method, standard strains; settings: unit assumed
Description: as §1

[4] = tested on: Pseudomonas aeruginosa I.F.O.; assay: MIC, plate method, standard strains; settings: unit assumed; for MIC Pseudomonas aeruginosa I.F.C: Table 3, standard strain; for MIC Pseudomonas aeruginosa I.F.O.: Table 4, standard strain
Description: as §1

[5] = tested on: Staphylococcus aureus 209p; assay: MIC, plate method, standard strains; settings: unit assumed
Description: as §1

[6] = tested on: Staphylococcus aureus; assay: MIC against clinical isolates; settings: Table 5-1, clinical isolate; unit assumed
[7] = tested on: Escherichia coli; assay: MIC against clinical isolates; settings: Table 5-2, clinical isolate; unit assumed
[8] = tested on: Shigella flexneri; assay: MIC against clinical isolates; settings: Table 5-5, clinical isolate; unit assumed
Description: as §1
(§2) MIC was determined in the same manner as in the preceding paragraph (1).

[9] = tested on: Shigella sonnei; assay: MIC against clinical isolates; settings: Table 5-5, clinical isolate; unit assumed
Description: as §1, §2

[10] = tested on: Proteus mirabilis; assay: MIC against clinical isolates; settings: Table 5-6, clinical isolate; unit assumed
[11] = tested on: Proteus morganii; assay: MIC against clinical isolates; settings: Table 5-6, clinical isolate; unit assumed
[12] = Table 3, standard strain, Heart infusion agar pH 7.4

SMILES | MIC Escherichia coli NIHJ [1] [µg/mL] | MIC Klebsiella pneumoniae ([2]; Table 4, standard strain) [µg/mL] | MIC Proteus vulgaris 3027 ([3]; Table 4, standard strain) [µg/mL] | MIC Pseudomonas aeruginosa I.F.O. [4] [µg/mL] | MIC Staphylococcus aureus 209p ([5]; Table 4, standard strain) [µg/mL] | further results
CC1(C)SC2C(NC(=O)C(NC(=O)N3CCN(CCCl)C(=O)C3=O)c3ccccc3)C(=O)N2C1C(=O)O (single isomer, unassigned) [Compound 44] | – | – | – | – | – | MIC Esche--richin coil NIHJ [1]: < 1.57 µg/mL; MIC Klebsiella pneumoniae ([2]; Table 3, standard strain): < 1.57 µg/mL; MIC Proteus vulgaris 3027 ([3]; Table 3, standard strain): < 1.57 µg/mL; MIC Pseudomonas aeruginosa I.F.C [4]: 6.25 µg/mL (≈ 11.3 µM); MIC Staphylococcus aureus 209p [5, 12]: < 1.57 µg/mL
Cc1csc(SCC2=C(C(=O)O)N3C(=O)C(NC(=O)C(NC(=O)N4CCN(C)C(=O)C4=O)c4ccccc4)C3SC2)n1 (single isomer, unassigned) [compound 71] | < 0.79 | 1.56 (≈ 2.47 µM) | < 0.79 | 50 (≈ 79.3 µM) | < 0.79 | –
CCN1CCN(C(=O)NC(C(=O)NC2C(=O)N3C(C(=O)O)=C(CSc4cnn[nH]4)CSC23)c2ccccc2)C(=O)C1=O (single isomer, unassigned) [compound 75] | < 0.4 | 1.57 (≈ 2.55 µM) | 12.5 (≈ 20.3 µM) | 50 (≈ 81.3 µM) | 1.57 (≈ 2.55 µM) | –
CCN1CCN(C(=O)NC(C(=O)NC2C(=O)N3C(C(=O)O)=C(COC)CSC23)c2ccccc2)C(=O)C1=O (single isomer, unassigned) [compound 80] | < 0.1 | 3.13 (≈ 5.74 µM) | 6.25 (≈ 11.5 µM) | 50 (≈ 91.6 µM) | 0.79 (≈ 1.45 µM) | –
Cn1nnnc1SCC1=C(C(=O)O)N2C(=O)C(NC(=O)C(NC(=O)N3CCN(CCO)C(=O)C3=O)c3ccc(O)cc3)C2SC1 (single isomer, unassigned) [compound 83] | < 1.57 | < 1.57 | < 1.57 | 25 (≈ 37.8 µM) | 1.57 (≈ 2.37 µM) | –
CC1(C)S[C@@H]2[C@H](NC(=O)[C@H](N)c3ccccc3)C(=O)N2[C@H]1C(=O)O [Sodium Ampicillin, reference compound] | – | – | – | – | – | MIC Staphylococcus aureus MS 8588 [6]: 6.25 µg/mL; MIC Staphylococcus aureus MS 8596 [6]: 1.56 µg/mL; MIC Staphylococcus aureus MS 8684 [6]: 1.56 µg/mL; MIC Staphylococcus aureus MS 8713 [6]: 3.13 µg/mL; MIC Escherichia coli GN 3435 [7]: 3.13 µg/mL; MIC Escherichia coli GN 3452 [7]: 6.25 µg/mL; MIC Escherichia coli GN 3481 [7]: 6.25 µg/mL; MIC Escherichia coli K-1 [7]: 6.25 µg/mL; MIC Escherichia coli K-2 [7]: 6.25 µg/mL; MIC Shigella flexneri JS 11839 [8]: 1.57 µg/mL; MIC Shigella sonnei JS 11232 [9]: > 200 µg/mL; MIC Shigella sonnei JS 11755 [9]: 6.25 µg/mL; MIC Proteus mirabilis [10]: < 1.57 µg/mL; MIC Proteus morganii [11]: < 1.57 µg/mL
CC1(C)SC2C(NC(=O)C(NC(=O)N3CC(=O)NC(=O)C3)c3ccccc3)C(=O)N2C1C(=O)O (stereo not drawn) [compound 59] | – | – | – | – | – | MIC Esche--richin coil NIHJ [1]: < 1.57 µg/mL; MIC Klebsiella pneumoniae ([2]; Table 3, standard strain): 200 µg/mL (≈ 409 µM); MIC Proteus vulgaris 3027 ([3]; Table 3, standard strain): 3.13 µg/mL (≈ 6.39 µM); MIC Pseudomonas aeruginosa I.F.C [4]: 25 µg/mL (≈ 51.1 µM); MIC Staphylococcus aureus 209p [5, 12]: < 1.57 µg/mL
CC(=O)OCC1=C(C(=O)O)N2C(=O)[C@@H](NC(=O)Cc3cccs3)[C@H]2SC1 [drawing 248, reference compound] | < 1.57 | < 1.57 | 100 (≈ 252 µM) | > 200 | < 1.57 | –
O=C(Cc1cccs1)N[C@@H]1C(=O)N2C(C(=O)[O-])=C(C[n+]3ccccc3)CS[C@H]12 [drawing 250, reference compound] | > 3.13 | 3.13 (≈ 7.53 µM) | 200 (≈ 481 µM) | 200 (≈ 481 µM) | < 1.57 | –

Source: patent publication US4327097A, “Novel penicillins” (Toyama Chemical Co., Ltd., priority 1974, dated 1982)
